According to patent US11447740B2, “Lactic acid bacterium and use thereof” (Sone Farm Co., Ltd., priority 2017, dated 2022):

Target: T1, hyaluronidase (Bos taurus, UniProt Q2YDK3)
T1 sequence (Q2YDK3 36-553): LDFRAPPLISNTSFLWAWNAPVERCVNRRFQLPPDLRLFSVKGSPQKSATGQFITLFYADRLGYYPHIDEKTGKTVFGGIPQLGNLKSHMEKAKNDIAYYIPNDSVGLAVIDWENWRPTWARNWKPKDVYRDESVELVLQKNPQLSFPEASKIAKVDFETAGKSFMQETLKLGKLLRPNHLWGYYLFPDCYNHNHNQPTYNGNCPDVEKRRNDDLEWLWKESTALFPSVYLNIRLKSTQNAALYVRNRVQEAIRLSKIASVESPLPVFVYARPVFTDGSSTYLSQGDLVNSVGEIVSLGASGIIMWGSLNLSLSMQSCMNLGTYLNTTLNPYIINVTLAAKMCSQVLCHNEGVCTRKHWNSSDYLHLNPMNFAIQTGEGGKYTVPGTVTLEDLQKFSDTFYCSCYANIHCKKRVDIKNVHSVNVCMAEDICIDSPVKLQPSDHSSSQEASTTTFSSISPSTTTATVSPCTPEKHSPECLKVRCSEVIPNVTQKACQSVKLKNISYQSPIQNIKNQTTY
Experiment: Hyaluronidase activity inhibition
Format: biochemical
Conditions: pH 4.0, 37° C.
Procedure: 5 μL of a hyaluronidase enzyme solution (MP Biomedicals, 4 mg/mL, 100 mM sodium acetate buffer (pH 4.0)) was added to 10 μL of an aqueous solution containing polysaccharides at an optional concentration, which was prepared from the polysaccharide sample containing the neutral polysaccharide fractions and the acidic polysaccharide fractions, the neutral polysaccharide fractions, and the acidic polysaccharide fractions, which were exopolysaccharides produced by the strain IJH-SONE68 and obtained in Example 4. The resultant mixture was incubated at 37° C. for 20 minutes. Thereafter, to the mixture, 10 μL of an enzyme-activating solution (0.5 mg/ml Compound 48/80 (manufactured by MP Biomedicals)), 3.75 mg CaCl2.2H2O, and 100 mM sodium acetate buffer (pH 4.0)) were added, and incubated again at 37° C. for 20 minutes. Subsequently, to the resultant mixture, 25 μL of a sodium hyaluronate solution (Wako Pure Chemical Industries, 0.8 mg/mL, 100 mM sodium acetate buffer (pH 4.0)) was added, and further reacted at 37° C. for 40 minutes. After the reaction, the reaction was terminated by adding 10 μL of 0.4 M NaOH aqueous solution. […] 40 μL of the reaction solution was mixed with 200 μL of p-DMAB solution (described below), the mixture was reacted at 37° C. for 20 minutes, and the absorbance at 585 nm was then measured. […]

- Hyaluronidase activity inhibition IC50: 530 µg/mL
SMILES: CC1(C)[C@@H](O[C@H]2O[C@H](C(=O)[O-])[C@@H](O)[C@H](O)[C@H]2O[C@@H]2O[C@H](C(=O)[O-])[C@@H](O)[C@H](O)[C@H]2O)CC[C@]2(C)[C@H]3C(=O)C=C4[C@@H]5C[C@@](C)(C(=O)O)CC[C@]5(C)CC[C@@]4(C)[C@]3(C)CC[C@@H]12.[K+].[K+] [Dipotassium glycyrrhizinate]
